# According to PubChem BioAssay (NCI):
#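 These data come from cells grown in 96-well plates and exposed to compound for 48 hours at five concentrations. TGI is the concentration that stops growth completely.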
# Legend:
# Assay in all cases: NCI tumour cell line growth inhibition, 48 h
# [1] = tested on: HOP-92 NSCLC
# [2] = tested on: OVCAR-4 ovarian
# [3] = tested on: UACC-62 melanoma
# [4] = tested on: CCRF-CEM leukemia
# [5] = tested on: NCI-H522 lung
# [6] = tested on: EKVX NSCLC
# [7] = tested on: LOX IMVI melanoma
# [8] = tested on: MALME-3M melanoma
# [9] = tested on: SK-MEL-2 melanoma
# [10] = tested on: RXF 393 renal
# [11] = tested on: SN12C renal
# [12] = tested on: M14 melanoma
# [13] = tested on: SW-620 colon
# [14] = tested on: K-562 leukemia
# [15] = tested on: SK-OV-3 ovarian
# [16] = tested on: SK-MEL-5 melanoma
# [17] = tested on: NCI/ADR-RES ovarian
# [18] = tested on: T-47D breast
# [19] = tested on: PC-3 prostate
SMILES,TGI [1] [µM],TGI [2] [µM],TGI [3] [µM],TGI [4] [µM],TGI [5] [µM],TGI [6] [µM],TGI [7] [µM],TGI [8] [µM],TGI [9] [µM],TGI [10] [µM],TGI [11] [µM],TGI [12] [µM],TGI [13] [µM],TGI [14] [µM],TGI [15] [µM],TGI [16] [µM],TGI [17] [µM],TGI [18] [µM],TGI [19] [µM]
CSC(=N)N1N=C2c3ccccc3CC[C@@H]2[C@@H]1c1ccccc1,20.4,49.3,41.7,65,27.8,44.4,28.5,25.9,29.2,27.7,31.2,27.4,29.9,39.7,41.6,–,–,–,–
Cc1cc2nc3c(C#N)c(-c4ccccc4)cc(Nc4ccc(F)cc4)n3c2cc1C,36.5,> 100,–,–,30.7,52.9,29,70,–,61.3,53.7,–,> 100,–,69.9,> 100,71.6,> 100,–
CCOC(=O)C1C(c2ccc([N+](=O)[O-])cc2)NC(c2ccc([N+](=O)[O-])cc2)C(C(=O)OC)S1(=O)=O (stereo unspecified),–,> 100,> 100,> 100,> 100,> 100,> 100,> 100,> 100,> 100,> 100,> 100,> 100,> 100,> 100,–,–,–,–
COc1cc(-c2c(C)c(C)nc(OC)c2C#N)cc(OC)c1OC,> 100,> 100,> 100,> 100,–,> 100,–,> 100,> 100,> 100,> 100,> 100,> 100,> 100,> 100,> 100,–,–,–
COc1cc(CCCC(O)COc2cccc3c2C2(O)CCCCCC32)cc(OC)c1 (stereo unspecified),19.9,40.6,30.6,> 100,42.1,30.6,–,31.8,35.7,43.2,31.8,35.7,31.6,31.1,38.5,20.5,–,–,–
CCCCCCCCCCCCNC1(C)CNCCCNCCNCCCNC1,4.55,3.82,3.25,–,3.22,12.8,3.25,3.47,3.34,2.93,3.05,3.21,3.27,–,3.21,3.06,–,–,–
C/C(=N/NC(=S)N1CCCC1)c1cccc(/C(C)=N\NC(=S)N2CCCC2)n1,–,–,9.39,3.01,7.77,3.49,> 100,4.89,4.21,3.18,5.73,2.56,4.33,> 100,4.65,2.69,7.62,–,5.36
